One assay concerns OCI-LY19 cell line. The experiment in a line: Immunoblotting for cleaved caspase 3. The format is cell-based, Human. The settings on record: OCI-LY19 (GCB); metformin 2.5mM, Kidrolase 2UI/mL, alone or combined. Here is the method: (§1) The cells are washed in cold 1X PBS then lysis is carried out at 4°C (on ice) for 20 minutes, using a mix containing a High Salt buffer (0.4 M NaCl). 25 mM Hepes pH 7.7, 1.5 mM MgCI 2, 0.2 mM EDTA, 1%NP4O), protease and phosphatase inhibitors (20 mM glycerol phosphate, 0.2 mM Na3VO4, 10mM PNPP, 2 mM DTT, […] and an inhibitor cocktail from Boehringer Company). Whole cell extracts are centrifuged also at 4°C for 10 minutes at 13 000 rpm, the supernatant is transferred to an Eppendorf tube and the proteins are dosed using a protein kit assay (Bio-Rad) and stored at - 80°C. Immunoblotting was performed as previously reported (Authier H et al, 2014). Cleaved caspase 3 and β-actin antibodies are from Cell Signaling Technologies and Sigma, respectively.
In general terms: A western blot detects proteins with antibodies after separation by electrophoresis.

The test system of another assay is MD901 cell line. The experiment in a line: Immunoblotting for cleaved caspase 3. The format is cell-based, Human. The settings on record: MD901 (ABC); metformin 2.5mM, Kidrolase 2UI/mL, alone or combined. Here is the method:
as §1

Each structure is given as a SMILES string. Where a name gives a salt, the structure may show the parent alone.

On to `CN(C)C(=N)N=C(N)N` [metformin, Metformin hydrochloride], for which the “activation of caspase 3 (cleaved caspase 3)” value in the assay on OCI-LY19 cell line and in the assay with MD901 cell line was “not to barely detectable” throughout.
